Experimental data published in the supplement of paper PMC11451515.

Tested on: P12-Ichikawa
Assay: cell viability relative to DMSO control; higher = less cytotoxic
Settings: 48 h
Procedure, shortened: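 Viability was expressed as a per-plate percentage of DMSO wells, with cell-free wells as background. Leukemia cells (NOMO1 or SEM at 500 cells/well, P12-Ichikawa at 1000 cells/well) were adapted for at least four passages in each medium and seeded in 1536-well plates (5 μl). Library compounds in DMSO were pin-dosed over an 11-point threefold series from 47 μM to 0.79 nM, and CellTiter-Glo One luminescence was read after 48 h at 37°C.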

[1] = HPLM + 10% dialyzed FBS, 0.000781 µM
[2] = HPLM + 10% dialyzed FBS, 0.00234 µM
[3] = HPLM + 10% dialyzed FBS, 0.00702 µM
[4] = HPLM + 10% dialyzed FBS, 0.0211 µM
[5] = HPLM + 10% dialyzed FBS, 0.0632 µM
[6] = HPLM + 10% dialyzed FBS, 0.19 µM
[7] = HPLM + 10% dialyzed FBS, 0.569 µM
[8] = HPLM + 10% dialyzed FBS, 1.71 µM
[9] = HPLM + 10% dialyzed FBS, 5.12 µM
[10] = HPLM + 10% dialyzed FBS, 15.4 µM
[11] = HPLM + 10% dialyzed FBS, 46.1 µM
[12] = RPMI 5 mM glucose + 10% FBS, 0.000781 µM
[13] = RPMI 5 mM glucose + 10% FBS, 0.00234 µM
[14] = RPMI 5 mM glucose + 10% FBS, 0.00702 µM
[15] = RPMI 5 mM glucose + 10% FBS, 0.0211 µM
[16] = RPMI 5 mM glucose + 10% FBS, 0.0632 µM
[17] = RPMI 5 mM glucose + 10% FBS, 0.19 µM
[18] = RPMI 5 mM glucose + 10% FBS, 0.569 µM
[19] = RPMI 5 mM glucose + 10% FBS, 1.71 µM
[20] = RPMI 5 mM glucose + 10% FBS, 5.12 µM
[21] = RPMI 5 mM glucose + 10% FBS, 15.4 µM
[22] = RPMI 5 mM glucose + 10% FBS, 46.1 µM
[23] = RPMI 5 mM glucose + 10% dialyzed FBS, 0.000781 µM
[24] = RPMI 5 mM glucose + 10% dialyzed FBS, 0.00234 µM
[25] = RPMI 5 mM glucose + 10% dialyzed FBS, 0.00702 µM
[26] = RPMI 5 mM glucose + 10% dialyzed FBS, 0.0211 µM
[27] = RPMI 5 mM glucose + 10% dialyzed FBS, 0.0632 µM
[28] = RPMI 5 mM glucose + 10% dialyzed FBS, 0.19 µM
[29] = RPMI 5 mM glucose + 10% dialyzed FBS, 0.569 µM
[30] = RPMI 5 mM glucose + 10% dialyzed FBS, 1.71 µM
[31] = RPMI 5 mM glucose + 10% dialyzed FBS, 5.12 µM
[32] = RPMI 5 mM glucose + 10% dialyzed FBS, 15.4 µM
[33] = RPMI 5 mM glucose + 10% dialyzed FBS, 46.1 µM

Structure (SMILES) | cell viability [1] | cell viability [2] | cell viability [3] | cell viability [4] | cell viability [5] | cell viability [6] | cell viability [7] | cell viability [8] | cell viability [9] | cell viability [10] | cell viability [11] | cell viability [12] | cell viability [13] | cell viability [14] | cell viability [15] | cell viability [16] | cell viability [17] | cell viability [18] | cell viability [19] | cell viability [20] | cell viability [21] | cell viability [22] | cell viability [23] | cell viability [24] | cell viability [25] | cell viability [26] | cell viability [27] | cell viability [28] | cell viability [29] | cell viability [30] | cell viability [31] | cell viability [32] | cell viability [33]
Clc1ccccc1C(c1ccccc1)(c1ccccc1)n1cccn1 | 123% | 134% | 119% | 129% | 125% | 130% | 122% | 126% | 128% | 116% | 114% |  |  |  |  |  |  |  |  |  |  |  |  |  |  |  |  |  |  |  |  |  | 
O=[S+]([O-])(/N=C/c1c(O)ccc2ccccc12)c1cccs1 | 109% | 113% | 116% | 120% | 120% | 120% | 117% | 122% | 124% | 103% | 84.6% | 119% | 123% | 130% | 115% | 120% | 120% | 133% | 123% | 132% | 123% | 125% | 117% | 121% | 126% | 125% | 124% | 124% | 120% | 122% | 121% | 109% | 103%
NC(=O)c1cnc(-c2ccc(C3(N)CCC3)cc2)c(-c2ccccc2)c1 |  |  |  |  |  |  |  |  |  |  |  | 118% | 126% | 115% | 111% | 115% | 134% | 121% | 116% | 111% | 80.4% | 67.9% |  |  |  |  |  |  |  |  |  |  | 
Cc1ccc(NC(=O)Nc2cc(C(F)(F)F)ccc2F)cc1Nc1ccc2c(c1)NC(=O)/C2=C\c1ccc[nH]1 | 122% | 123% | 133% | 133% | 131% | 143% | 139% | 134% | 128% | 137% | 70.3% |  |  |  |  |  |  |  |  |  |  |  |  |  |  |  |  |  |  |  |  |  | 
CN1\N=N/C2=C(N=C[N]2C1=O)C(N)=O | 127% | 124% | 125% | 121% | 128% | 125% | 134% | 127% | 128% | 115% | 88.8% |  |  |  |  |  |  |  |  |  |  |  |  |  |  |  |  |  |  |  |  |  | 
NCCCC(O)(P(=O)(O)O)P(=O)(O)O.O.O.O.[Na+] | 109% | 113% | 123% | 114% | 114% | 112% | 102% | 97.9% | 68.3% | 45.1% | 19.7% | 120% | 116% | 119% | 119% | 119% | 121% | 112% | 107% | 85.5% | 64.9% | 51.4% | 121% | 121% | 125% | 120% | 117% | 120% | 109% | 97.3% | 76.3% | 46.4% | 35.6%
CCN1\C=C(C(O)=O)/C(=O)C2=C1C=C(N3CCN(C)CC3)C(=C2)F | 117% | 118% | 114% | 107% | 116% | 113% | 108% | 105% | 90.7% | 77.5% | 71.5% | 110% | 116% | 117% | 108% | 117% | 120% | 108% | 112% | 84% | 73.9% | 69.1% | 110% | 121% | 112% | 121% | 109% | 123% | 108% | 104% | 83.1% | 69.1% | 61.9%
CO[C@H]1/C=C/O[C@@]2(C)Oc3c(C)c(O)c4c(O)c(c(/C=N/N5CCN(C)CC5)c(O)c4c3C2=O)NC(=O)/C(C)=C\C=C\[C@H](C)[C@H](O)[C@@H](C)[C@@H](O)[C@@H](C)[C@H](OC(C)=O)[C@@H]1C | 116% | 117% | 124% | 120% | 127% | 114% | 108% | 110% | 99.8% | 94.9% | 63.7% | 128% | 111% | 118% | 118% | 124% | 112% | 123% | 116% | 98.3% | 89.9% | 75.4% | 124% | 120% | 123% | 123% | 122% | 111% | 109% | 115% | 93.2% | 82% | 70.6%
